Earlier results in publication PMC6854850 (MicrobiologyOpen, 2019).

Target: T1, OmpP (Escherichia coli, UniProt P34210)
T1 sequence (P34210 24-315): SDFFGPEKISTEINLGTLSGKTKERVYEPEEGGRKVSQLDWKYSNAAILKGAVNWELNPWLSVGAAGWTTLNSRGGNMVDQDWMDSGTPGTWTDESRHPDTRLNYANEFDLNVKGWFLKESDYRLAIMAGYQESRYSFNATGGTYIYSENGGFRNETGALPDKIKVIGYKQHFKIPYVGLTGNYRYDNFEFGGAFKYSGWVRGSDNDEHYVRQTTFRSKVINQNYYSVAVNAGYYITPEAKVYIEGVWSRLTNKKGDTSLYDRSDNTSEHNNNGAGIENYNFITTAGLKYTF
Settings: ref Hwang et al., 2007

protamine
cleavage of AMP by OmpP, in words: has been shown to cleave
